The target of the test is Tryptophan--tRNA ligase (Mycobacterium tuberculosis (strain ATCC 25618 / H37Rv), UniProt P9WFT3). Nature of the test: Biochemical assay for Mt-TrpRS. In kind it is functional.

Some results are limits rather than exact numbers.

Tryptophan--tRNA ligase, sequence (P9WFT3 whole entry): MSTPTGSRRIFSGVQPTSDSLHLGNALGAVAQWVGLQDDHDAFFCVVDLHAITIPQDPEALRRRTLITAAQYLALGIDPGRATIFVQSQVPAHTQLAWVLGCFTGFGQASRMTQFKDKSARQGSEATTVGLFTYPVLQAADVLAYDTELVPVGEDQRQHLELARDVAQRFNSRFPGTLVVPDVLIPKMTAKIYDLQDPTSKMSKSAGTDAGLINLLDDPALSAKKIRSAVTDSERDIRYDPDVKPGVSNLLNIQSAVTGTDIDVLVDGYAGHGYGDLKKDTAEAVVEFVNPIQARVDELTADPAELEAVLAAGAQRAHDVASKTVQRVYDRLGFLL

Take `COc1ccccc1OCCc1nnc(NC(=O)C2CC23CCC3)s1` (configuration not stated): the IC50 was > 195 µM.

Take `CC(=O)N1CCC(C(=O)N2CCC2c2nc(-c3ccc(C)s3)no2)CC1` (configuration not stated): the IC50 is > 195 µM.

With `CCN(CC)S(=O)(=O)N1CCCC(c2ncc3c(n2)CCN(C)C3)C1` (configuration not stated), the IC50 is > 195 µM.

Regarding `CN(C)C(=O)c1cncnc1-c1ccc(CNC(=O)C2CCCO2)cc1` (configuration not stated), the IC50 was > 195 µM.

As to `CC(C)C(NC(=O)C1CCCC1)c1cc(O)nc(-c2cccnc2)n1` (configuration not stated), the IC50 was > 195 µM.

For `C=Cn1ncc(CN2CCC(c3ncc(Cl)cc3S(C)(=O)=O)CC2)c1C`, the IC50 is > 195 µM.

On to `NC(=O)CN1CCCC(Cc2ccc(N3CCOCC3)nn2)C1` (configuration not stated), for which the IC50 is > 195 µM.

For the molecule `COCCn1cnnc1C1CCCN(C(C)C)C1` (configuration not stated), the IC50 was > 195 µM.

For the molecule `Cn1nccc1C(=O)N1CCCC1c1[nH]ncc1C(N)=O` (configuration not stated), the half-inhibitory concentration (IC50) is > 195 µM.

Turning to `Cc1cc(N2CCC(c3n[nH]c4nccnc34)C2)ncn1` (configuration not stated), the IC50 is > 195 µM.

Regarding `c1ccc(N2CCOC(Cc3cccnc3)C2)cc1` (configuration not stated), the IC50 was > 195 µM.

In the case of `Cn1ccc(C(=O)N2CCCC2c2[nH]ncc2C(N)=O)n1` (configuration not stated), the half-inhibitory concentration (IC50) was > 195 µM.

Regarding `Cc1cc(N2CCC(c3n[nH]c4nccnc34)CC2)ncn1`, the IC50 is > 195 µM.

`Cc1cncc(C2CCN(C(=O)CCc3ccnn3C)CC2)n1`: the IC50 was > 195 µM.

On to `Nc1nccnc1C1CN(C(=O)c2ccnnc2)CCO1` (configuration not stated), for which the IC50 was > 195 µM.

For the molecule `NC(=O)CN1CCCC(Cc2ccc(N)nn2)C1` (configuration not stated), the IC50 was > 195 µM.

Turning to `Cn1ccc(C(=O)N2CCOC(c3ccccn3)C2)cc1=O` (configuration not stated), the IC50 is > 195 µM.

As for `COc1cccc(-c2ccnc(C3CCNCC3)c2)c1`, the IC50 was > 195 µM.

Consider `COCCc1ncc(CNC2(c3ccc(Cl)cc3Cl)CC2)cn1`, for which the IC50 was > 195 µM.

Turning to `COc1ccccc1C1=NOC(CC2(C(=O)O)CCOCC2)C1` (configuration not stated), the IC50 was > 195 µM.

With `CN(C)CC(=O)N1C[C@@H]2CC[C@H](Oc3ccccc3)[C@@H]2C1`, the IC50 was > 195 µM.

`CCOCC(=O)N1C[C@@H]2CC[C@H](Oc3ccccc3)[C@@H]2C1`: the IC50 was > 195 µM.

On to `O=C(O)c1ccccc1CN1CCOC(CCc2ccncn2)C1` (configuration not stated), for which the concentration for half-maximal inhibition (IC50) is > 195 µM.

Consider `CS(=O)(=O)NC[C@]1(O)CCN(C(=O)Cc2cccs2)C[C@H]1O`, for which the IC50 is > 195 µM.

Regarding `c1ccc(CO[C@H]2C[C@@H]3CN(Cc4cccnc4)C[C@@H]3C2)cc1`, the IC50 was > 195 µM.

As to `COCCN1CCN(Cc2cnc(C(C)C)nc2)CC1`, the IC50 was > 195 µM.

In the case of `O[C@H]1CN(Cc2cccc(C(F)(F)F)c2)CC[C@@]12CCCO2`, the IC50 is > 195 µM.

Take `O=C(N[C@@H]1CCC[C@@H](N2CCCC2)[C@@H]1O)c1cc2ccccc2[nH]1`: the IC50 was > 195 µM.

As for `O=S(=O)(c1cccs1)N1CCCC(c2nccs2)C1` (configuration not stated), the IC50 is > 195 µM.

Regarding `Cc1noc(C2(C)CCCN(C(=O)c3cccnc3)C2)n1` (configuration not stated), the IC50 was > 195 µM.

Consider `O=C(CCc1cccnc1)N1CCC(c2cnccn2)CC1`, for which the IC50 was > 195 µM.

Consider `O=C(CCn1ccnc1)N1C[C@@H](O)[C@H](Oc2cccc(F)c2)C1`, for which the IC50 is > 195 µM.

For `Cc1c(C(=O)N2CCC(O)(CN(C)C)C2)c2ccccc2n1C` (configuration not stated), the IC50 is > 195 µM.

Turning to `Cc1cc(C)nc(C2CCN(C(=O)c3cncnc3C)C2)n1` (configuration not stated), the IC50 was > 195 µM.

As for `CCCC(=O)N1CCCCC1c1nccc(C)n1` (configuration not stated), the half-inhibitory concentration (IC50) is > 195 µM.

On to `Cc1nc(Nc2nncs2)cc(C2CCCN2C)n1` (configuration not stated), for which the IC50 is > 195 µM.

As to `CN1CCC(c2cncc(-c3cccc(Cl)c3)n2)CC1`, the half-maximal inhibitory concentration (IC50) is > 195 µM.

On to `CC(=O)N1CCCC(c2ccnc(N(C)C)n2)C1` (configuration not stated), for which the IC50 is > 195 µM.

In the case of `Cc1nc(Nc2ncccn2)cc(C2CCCN2C)n1` (configuration not stated), the IC50 was > 195 µM.

`NC(=O)CN1CCOCC(Cc2ccccc2Cl)C1` (configuration not stated): the half-maximal inhibitory concentration (IC50) was > 195 µM.

Consider `COCC(=O)N1CCC(C(=O)c2cc(C)cnc2N)CC1`, for which the half-inhibitory concentration (IC50) is > 195 µM.

Consider `Cn1ccc(C(=O)N2CCCC(c3cc(O)n(C)n3)C2)n1` (configuration not stated), for which the IC50 was > 195 µM.

`O=C(Cn1cccnc1=O)NC(Cc1ccsc1)c1nccs1` (configuration not stated): the IC50 was > 195 µM.

For `Cc1cc(-c2cnn(CCNC(=O)Cc3ccccn3)c2C2CC2)on1`, the IC50 was > 195 µM.

For `Cc1cccc(CN2CCC(c3nnsc3S(C)(=O)=O)CC2)c1`, the IC50 was > 195 µM.

For the molecule `CS(=O)(=O)c1snnc1C1CCN(Cc2cccnc2)CC1`, the IC50 is > 195 µM.

`Cc1ccc2cc(CNCCN3CCCC3)c(=O)[nH]c2c1`: the IC50 is > 195 µM.

Take `CS(=O)(=O)N1CCCC(Cc2cncc(Br)c2)CC1` (configuration not stated): the IC50 is > 195 µM.

In the case of `CNc1cccc(C2CCCN(C(=O)c3cccnc3)C2)n1` (configuration not stated), the 50% inhibitory concentration (IC50) was > 195 µM.

With `CN1CCCC(CCCc2cccnc2)(C(N)=O)C1` (configuration not stated), the IC50 was > 195 µM.

Consider `Cc1cccc(CN2CCCC2c2cccc(CCC(=O)O)n2)c1` (configuration not stated), for which the IC50 was > 195 µM.

On to `O[C@@H]1CN(Cc2ccncc2)C[C@H]1Oc1ccccc1`, for which the IC50 is > 195 µM.

For the molecule `COc1ccc(S(=O)(=O)N2CCC(O)(CN(C)C)C2)cc1` (configuration not stated), the IC50 was > 195 µM.

As to `Cc1cncc(CN2C[C@@H](O)[C@H](Oc3ccccc3)C2)c1`, the IC50 is > 195 µM.

`Cc1ccc(S(=O)(=O)N2CCC(O)(CN(C)C)C2)cc1` (configuration not stated): the IC50 was > 195 µM.

As for `Cn1ccc(C(=O)N2CCC(Cc3cnc4[nH]ccc4c3)C2)n1` (configuration not stated), the IC50 is > 195 µM.

For `CNc1cccc(C2CCCN(C(=O)c3ccn(C)n3)C2)n1` (configuration not stated), the IC50 was > 195 µM.

Regarding `O=C(c1ccccn1)N1CCC(Cc2cnc3[nH]ccc3c2)CC1`, the IC50 is > 195 µM.

As for `CN(C)CC1(O)CCN(S(=O)(=O)c2cccc(F)c2)C1` (configuration not stated), the IC50 is > 195 µM.

As for `Cc1ccccc1-c1cncc(C2CCN(CCO)CC2)n1`, the half-maximal inhibitory concentration (IC50) is > 195 µM.

As to `Cc1cccc(C2CCCN(C(=O)c3ccncc3)C2)n1` (configuration not stated), the IC50 is > 195 µM.

Consider `CCc1cc(O)nc(C2CCCN2C(=O)COC)n1` (configuration not stated), for which the IC50 was > 195 µM.

Turning to `COCC(=O)N1CCOC(c2ccc(N(C)C)cn2)C1` (configuration not stated), the IC50 was > 195 µM.

In the case of `Cc1csc(Nc2nccnc2C2CCCN2CC(N)=O)n1` (configuration not stated), the IC50 is > 195 µM.

In the case of `COc1cccc(C(=O)NC(c2ccccn2)[C@H]2CC[C@H](CN)CC2)c1` (some centres not stated), the IC50 is > 195 µM.

For the molecule `CO[C@H]1CN(Cc2ccc(F)c(F)c2)C[C@@]12CCCO2`, the IC50 is > 195 µM.

`O=C(Cc1cccs1)N1CCC(O)(CN2CCc3ccccc3C2)C1` (configuration not stated): the IC50 is > 195 µM.

As to `CNc1cncc(C2CCCN2Cc2cccc(C)n2)n1` (configuration not stated), the IC50 was > 195 µM.

Regarding `CC1CCCCN1c1nc2c(c(=O)[nH]1)CCN(Cc1ccccc1O)C2` (configuration not stated), the IC50 was > 195 µM.

With `COCCC(=O)N1CCCC1c1csc(Nc2ccccn2)n1` (configuration not stated), the concentration for half-maximal inhibition (IC50) was > 195 µM.

In the case of `CCn1cc(CN2CCC(c3[nH]ncc3S(C)(=O)=O)C2)cn1` (configuration not stated), the IC50 was > 195 µM.

For `COCC(=O)N1CCCC(c2cccc(-n3ccnc3)n2)C1` (configuration not stated), the concentration for half-maximal inhibition (IC50) was > 195 µM.

Take `Cc1cc2cc(C(=O)N3C[C@H](O)[C@]4(CCCO4)C3)ccc2o1`: the IC50 is > 195 µM.

Take `COc1ccccc1CC(=O)N1CC[C@H](O)[C@]2(CCCO2)C1`: the 50% inhibitory concentration (IC50) was > 195 µM.

For `C[C@@]1(O)CCN(Cc2cc[nH]n2)C[C@H]1Oc1cccc(F)c1`, the IC50 is > 195 µM.

Consider `Cn1cncc1CN1CC[C@](C)(O)[C@@H](Oc2cccc(F)c2)C1`, for which the IC50 is > 195 µM.

Turning to `CO[C@H]1CN(Cc2cc(F)ccc2F)CC[C@@]12CCCO2`, the IC50 was > 195 µM.

With `C[C@]1(O)CN(Cc2ncc[nH]2)CC[C@@H]1Oc1cccc(F)c1`, the IC50 was > 195 µM.

`C[C@]1(O)CN(CCO)CC[C@@H]1Oc1cccc(F)c1`: the 50% inhibitory concentration (IC50) is > 195 µM.

Turning to `Cc1cnc(CC2COCCN(Cc3nccn3C)C2)cn1` (configuration not stated), the IC50 is > 195 µM.

In the case of `CN(C)c1ccc(CC2COCCN(Cc3nccn3C)C2)nn1` (configuration not stated), the IC50 is > 195 µM.

In the case of `CN(C)C(=O)CN1CCO[C@H]2CN(Cc3ccoc3)C[C@H]21`, the IC50 is > 195 µM.

Regarding `Cc1nc(CN2CCC3(C2)CN(Cc2ccco2)C3)cs1`, the IC50 is > 195 µM.

Take `Cc1ccc(CN2C[C@H](NC(=O)c3nccn3C)[C@H]3OCCC[C@H]32)o1`: the IC50 was > 195 µM.

Regarding `Cc1ccc(N2CCc3ncnc(C)c3CC2)nn1`, the IC50 was > 195 µM.

With `CCC(=O)N1CCC2(C=C(C(=O)N3CCCC3)c3ccccc32)CC1`, the half-maximal inhibitory concentration (IC50) is > 195 µM.

As to `COCCN1C(=O)CC[C@@H]2[C@H]1CCN2S(=O)(=O)c1cccs1`, the IC50 was > 195 µM.

With `O=C(NC1CC1)N1C[C@@H]2CCN(C(=O)c3cscn3)[C@@H]2C1`, the IC50 is > 195 µM.

Consider `CS(=O)(=O)N1C[C@@H]2CCN(C(=O)c3cscn3)[C@@H]2C1`, for which the IC50 is > 195 µM.

On to `CCN(C(=O)c1nc2c(s1)CCCN2C)C(C)C`, for which the IC50 was > 195 µM.

`O=C1CO[C@@H]2CN(S(=O)(=O)c3ccc(F)cc3)C[C@H]2N1`: the IC50 is > 195 µM.

Consider `COCc1cncc2c1CCN(C(=O)c1cscn1)C2`, for which the IC50 is > 195 µM.

In the case of `c1cn(-c2cncc(C3CCNCC3)n2)cn1`, the IC50 was > 195 µM.

For `Fc1ccccc1OCCc1cc(C2CNCCO2)n[nH]1` (configuration not stated), the IC50 is > 195 µM.

For `O=C(c1cc2c(s1)CCCC2)N1CCc2nc(C3CCCN3)ncc2C1` (configuration not stated), the IC50 was > 195 µM.

Turning to `c1cn(-c2cnc(C3CCNCC3)cn2)cn1`, the IC50 was > 195 µM.

Turning to `Fc1ccc2c(c1)C1(CCNCC1)CC2NC1CC1` (configuration not stated), the IC50 is > 195 µM.

On to `Cn1cc(C(=O)NCc2cncc3c2CCN(CC2CC2)C3)cn1`, for which the IC50 was > 195 µM.

Turning to `Cn1cc(C(=O)NCc2cncc3c2CCN(c2ccccn2)C3)cn1`, the IC50 is > 195 µM.

Turning to `Cn1cc(C(=O)NCc2cncc3c2CCNC3)cn1`, the IC50 is > 195 µM.

With `CC(C)N(C)Cc1cncc2c1CCN(CC(=O)N(C)C)C2`, the IC50 is > 195 µM.

Turning to `CN(C)CCNC(=O)c1nc2c(s1)CCCN2C(=O)C1CC1`, the 50% inhibitory concentration (IC50) is > 195 µM.

For `O=C(NCC1CC2(CO1)CN(Cc1cccs1)C2)C1CCC1` (configuration not stated), the IC50 was > 195 µM.

For `Cn1cnc(S(=O)(=O)N2CC3(CCN(c4ccccc4)C3)C2)c1`, the half-maximal inhibitory concentration (IC50) was > 195 µM.

In the case of `c1cncc(CN2CCN3C[C@H](Oc4cncnc4)C[C@H]3C2)c1`, the IC50 was > 195 µM.

As to `COCC1CC2(CCN(Cc3nccs3)CC2)CN1Cc1ccccn1` (configuration not stated), the IC50 was > 195 µM.

As for `Cc1nc(C2CCN(Cc3ncc[nH]3)CC2)no1`, the IC50 is > 195 µM.
